Publication PMC6829536 (International Journal of Molecular Sciences, 2019)

Columns and labels:
WT CaFADS [1] = molecular target: T1, WT CaFADS (Corynebacterium ammoniagenes, UniProt Q59263); assay: Isothermal titration calorimetry (ITC) of ligand binding at the FMNAT site; settings: 20 mM PIPES
T1 construct: made in house; host or cells: Escherichia coli

P56W CaFADS = molecular target: T2, P56W CaFADS (Corynebacterium ammoniagenes, UniProt Q59263, P56W); assay: as above; settings: for -TΔS / ΔH / ΔG: P56W CaFADS, 20 mM PIPES
T2 construct: made in house; host or cells: E. coli BL21(DE3)

P58W CaFADS = molecular target: T3, P58W CaFADS (Corynebacterium ammoniagenes, UniProt Q59263, P58W); assay: as above; settings: 20 mM PIPES
T3 construct: made in house; host or cells: E. coli BL21(DE3)

P56A/P58A CaFADS = molecular target: T4, P56A/P58A CaFADS (Corynebacterium ammoniagenes, UniProt Q59263, P56A/P58A); assay: as above; settings: 20 mM PIPES
T4 construct: made in house; host or cells: E. coli BL21(DE3)

L98A CaFADS = molecular target: T5, L98A CaFADS (Corynebacterium ammoniagenes, UniProt Q59263, L98A); assay: as above; settings: 20 mM PIPES
T5 construct: made in house; host or cells: E. coli BL21(DE3)

L98K CaFADS = molecular target: T6, L98K CaFADS (Corynebacterium ammoniagenes, UniProt Q59263, L98K); assay: as above; settings: 20 mM PIPES, pH 7.0, no MgCl2
T6 construct: made in house; host or cells: E. coli BL21(DE3)

L98W CaFADS = molecular target: T7, L98W CaFADS (Corynebacterium ammoniagenes, UniProt Q59263, L98W); assay: as above; settings: 20 mM PIPES
T7 construct: made in house; host or cells: E. coli BL21(DE3)

WT CaFADS [2] = molecular target: T1, WT CaFADS; settings: cited from earlier work
CaFADS variants [3] = assay: Difference spectroscopy of flavin binding at the FMNAT site; design: species or system Corynebacterium ammoniagenes; settings: all variants, 20 mM PIPES, 10 mM MgCl2, pH 7.0, 25 °C
Experimental: Spectroscopic measurements were carried out following previously established conditions and protocols. UV–visible absorption spectra were recorded in a Cary 100 spectrophotometer (Agilent Technologies, Santa Clara, CA, USA). Experimental extinction coefficients at 279 nm (ε^279) for each variant were determined based on the Gill and von Hippel method. In short, the UV–visible absorbance spectrum of the protein was recorded. Then samples were denatured with guanidinium hydrochloride (6 M in 20 mM sodium phosphate, pH 6.5). Then, the absorbance spectrum of the denatured sample was recorded and its concentration was calculated considering the theoretical extinction coefficient determined using the amino acid sequence. This concentration, taking into account the protein dilution in the denaturation process, was then used to determine ε^279 at the protein maximum by using the native protein spectrum before denaturation. Difference spectroscopy measurements were carried out in 20 mM PIPES, 10 mM MgCl2, pH 7.0, with saturating concentrations of ligands. Circular dichroism (CD) spectra were recorded using a Chirascan spectropolarimeter (Appl. Phot. Ltd., Leatherhead, Surrey, UK) at 25 °C. […]

CaFADS variants [4] = assay: Qualitative detection of RFK, FMNAT and FADpp activities by TLC; type: biochemical, Corynebacterium ammoniagenes; settings: all variants, 200 nM enzyme, 50 μM flavin, 0.2 mM ATP, 10 mM MgCl2, pH 7.0, 30 min and 2 h
Experimental: RFK and FMNAT activities were qualitatively assayed by the incubation of enzymes with substrates and separation of flavins (substrates and products) from reaction mixtures using TLC on Silica Gel SIL-G-25 plates (20 × 20 cm, thickness 0.25 mm) as previously described. […] Reactions were stopped by boiling the preparations for 5 min. Flavin spots were visualized under UV light.

[5] = test system: Cc1cc2nc3c(=O)[nH]c(=O)nc-3n(C[C@H](O)[C@H](O)[C@H](O)CO)c2cc1C; assay: purified protein, by the assay type; type: biochemical, Corynebacterium ammoniagenes; settings: RF varied, saturating ATP, apparent value, 20 mM PIPES, 0.8 mM MgCl2, pH 7.0, 25 °C
Experimental: Reactions were initiated by the addition of ~20 nM of enzyme. After 1 min incubation at 25 °C, the reactions were stopped by boiling the mixtures for 5 min. The composition of flavins in the supernatant was determined using an Alliance HPLC system (Waters, Milford, MA, USA) equipped with a 2707 autosampler and a HSST3 column (4.6 × 150 mm, 3.5 µm, Waters) preceded by a pre-column (4.6 × 20 mm, 3.5 µm, Waters). The chromatography was developed at 1 mL/min with a 6 min isocratic program of methanol 40% (v/v) in 5 mM ammonium acetate (pH 6.0). Detection of flavins was carried out using a 2475 Multi λ fluorescence detector (Waters), excitation wavelength of 470 nm and emission wavelength of 530 nm. […] The flavinic products of the reaction were identified by their retention times and quantified through their corresponding standard curves obtained under the same conditions. Controls containing free flavins in the absence of the enzyme were treated similarly to reaction samples to discard flavin degradation during RFK activity determination. […] In case of inhibition, the experimental data were fitted to a model describing the substrate inhibition of a bi-substrate mechanism. In these situations, errors in apparent Km and kcat (^appKm and ^appkcat) increased with the inhibition constant (Ki) value getting closer to Km^S. Reaction mixtures were evaluated in triplicates, and final results are expressed as the standard error of the fitted value (value ± SE).

[6] = 10 mM MgCl2, pH 7.0, n.d. = no interaction profile was detected

Compound: Nc1ncnc2c1ncn2[C@@H]1O[C@H](COP(=O)(O)OP(=O)(O)OP(=O)(O)O)[C@@H](O)[C@H]1O [ATP, Adenosine 5′-triphosphate]
- -TΔS (WT CaFADS [1]; pH 7.0, no MgCl2): 39 ± 6 kcal/mol
- ΔH (WT CaFADS [1]; pH 7.0, no MgCl2): -44 ± 6 kcal/mol
- -TΔS (P56W CaFADS; pH 7.0, no MgCl2): 11 ± 2 kcal/mol
- ΔH (P56W CaFADS; pH 7.0, no MgCl2): -16 ± 3 kcal/mol
- -TΔS (P58W CaFADS; pH 7.0, no MgCl2): -3.8 ± 0.1 kcal/mol
- ΔG (P58W CaFADS; pH 7.0, no MgCl2): -6.5 ± 0.1 kcal/mol
- ΔH (P58W CaFADS; pH 7.0, no MgCl2): -2.7 ± 0.1 kcal/mol
- -TΔS (P56A/P58A CaFADS; pH 7.0, no MgCl2): -3.6 ± 0.2 kcal/mol
- ΔG (P56A/P58A CaFADS; pH 7.0, no MgCl2): -6.4 ± 0.1 kcal/mol
- ΔH (P56A/P58A CaFADS; pH 7.0, no MgCl2): -2.8 ± 0.2 kcal/mol
- -TΔS (L98A CaFADS; pH 7.0, no MgCl2): 15 ± 2 kcal/mol
- ΔG (L98A CaFADS; pH 7.0, no MgCl2): -5.6 ± 0.1 kcal/mol
- ΔH (L98A CaFADS; pH 7.0, no MgCl2): -20 ± 3 kcal/mol
- -TΔS (L98K CaFADS): 33 ± 19 kcal/mol
- ΔG (L98K CaFADS): -5.6 ± 0.2 kcal/mol
- ΔH (L98K CaFADS): -39 ± 19 kcal/mol
- -TΔS (L98W CaFADS; pH 7.0, no MgCl2): 26 ± 6 kcal/mol
- ΔH (L98W CaFADS; pH 7.0, no MgCl2): -32 ± 6 kcal/mol
- kcat (WT CaFADS [2]; ATP varied, RF at ~80% of maximum activity, apparent value, 20 mM PIPES, 0.8 mM MgCl2, pH 7.0, 25 °C): 2.58 ± 0.083 s⁻¹
- Km (WT CaFADS [2]; read-out: Km^ATP, ATP varied, RF at ~80% of maximum activity, 20 mM PIPES, 0.8 mM MgCl2, pH 7.0, 25 °C): 28 ± 4 µM

Compound: Cc1cc2nc3c(=O)[nH]c(=O)nc-3n(C[C@H](O)[C@H](O)[C@H](O)COP(=O)(O)OP(=O)(O)OC[C@H]3O[C@@H](n4cnc5c(N)ncnc54)[C@H](O)[C@@H]3O)c2cc1C [FAD, Riboflavin 5′-adenosine diphosphate]
- -TΔS (WT CaFADS [1]; 10 mM MgCl2, pH 7.0): 18 ± 1 kcal/mol
- ΔH (WT CaFADS [1]; 10 mM MgCl2, pH 7.0): -26 ± 1 kcal/mol
- -TΔS (P56W CaFADS; 10 mM MgCl2, pH 7.0): -6.1 ± 0.1 kcal/mol
- ΔG (P56W CaFADS; 10 mM MgCl2, pH 7.0): -6.9 ± 0.1 kcal/mol
- ΔH (P56W CaFADS; 10 mM MgCl2, pH 7.0): -0.9 ± 0.1 kcal/mol
- -TΔS (P58W CaFADS; 10 mM MgCl2, pH 7.0): -7.0 ± 0.1 kcal/mol
- ΔG (P58W CaFADS; 10 mM MgCl2, pH 7.0): -7.6 ± 0.1 kcal/mol
- ΔH (P58W CaFADS; 10 mM MgCl2, pH 7.0): -0.56 ± 0.02 kcal/mol
- -TΔS (P56A/P58A CaFADS; 10 mM MgCl2, pH 7.0): -7.4 ± 0.1 kcal/mol
- ΔG (P56A/P58A CaFADS; 10 mM MgCl2, pH 7.0): -7.8 ± 0.1 kcal/mol
- ΔH (P56A/P58A CaFADS; 10 mM MgCl2, pH 7.0): -0.39 ± 0.1 kcal/mol
- -TΔS (L98W CaFADS; 10 mM MgCl2, pH 7.0): -6.9 ± 0.1 kcal/mol
- ΔG (L98W CaFADS; 10 mM MgCl2, pH 7.0): -7.4 ± 0.1 kcal/mol
- ΔH (L98W CaFADS; 10 mM MgCl2, pH 7.0): -0.6 ± 0.1 kcal/mol
- difference spectra on titration with FAD (CaFADS variants [3]; saturating FAD): hardly produced difference spectra

Compound: Cc1cc2nc3c(=O)[nH]c(=O)nc-3n(C[C@H](O)[C@H](O)[C@H](O)COP(=O)(O)O)c2cc1C [FMN, Riboflavin 5′-phosphate]
- -TΔS (WT CaFADS [1]; 10 mM MgCl2, pH 7.0): 15 ± 1 kcal/mol
- ΔH (WT CaFADS [1]; 10 mM MgCl2, pH 7.0): -22 ± 1 kcal/mol
- Kd^FMN lower than WT (P56W CaFADS; P56W CaFADS vs WT): up to 4 fold
- -TΔS (P56W CaFADS; 10 mM MgCl2, pH 7.0): -6.5 ± 0.1 kcal/mol
- ΔG (P56W CaFADS; 10 mM MgCl2, pH 7.0): -7.9 ± 0.1 kcal/mol
- ΔH (P56W CaFADS; 10 mM MgCl2, pH 7.0): -1.4 ± 0.1 kcal/mol
- -TΔS (P58W CaFADS; 10 mM MgCl2, pH 7.0): -7.3 ± 0.1 kcal/mol
- ΔG (P58W CaFADS; 10 mM MgCl2, pH 7.0): -8.6 ± 0.1 kcal/mol
- ΔH (P58W CaFADS; 10 mM MgCl2, pH 7.0): -1.3 ± 0.1 kcal/mol
- ΔG (P56A/P58A CaFADS; 10 mM MgCl2, pH 7.0): -8.8 ± 0.1 kcal/mol
- ΔH (P56A/P58A CaFADS; 10 mM MgCl2, pH 7.0): -1.8 ± 0.1 kcal/mol
- -TΔS (L98A CaFADS; [6]): -7.9 ± 0.1 kcal/mol
- ΔG (L98A CaFADS; [6]): -9.0 ± 0.1 kcal/mol
- ΔH (L98A CaFADS; [6]): -1.2 ± 0.1 kcal/mol
- -TΔS (L98W CaFADS; 10 mM MgCl2, pH 7.0): -7.2 ± 0.1 kcal/mol
- ΔG (L98W CaFADS; 10 mM MgCl2, pH 7.0): -8.7 ± 0.1 kcal/mol
- ΔH (L98W CaFADS; 10 mM MgCl2, pH 7.0): -1.5 ± 0.1 kcal/mol
- FMNAT activity (transformation of FMN into FAD), qualitative (CaFADS variants [4]): none of the variants was neither capable of catalyzing the transformation of FMN into FAD
- difference spectra after incubation with FMN (CaFADS variants [3]; saturating FMN): All the variants produced difference spectra

Compound: L98A CaFADS (Corynebacterium ammoniagenes; L98A)
- Km ([5]; other: L98A CaFADS): 1.5 ± 0.7 µM

Compound: L98K CaFADS (Corynebacterium ammoniagenes; L98K)
- Km ([5]; other: L98K CaFADS): 4.0 ± 1.1 µM

Compound: L98W CaFADS (Corynebacterium ammoniagenes; L98W)
- Km ([5]; other: L98W CaFADS): 1.6 ± 0.6 µM

Compound: P56A/P58A CaFADS (Corynebacterium ammoniagenes; P56A/P58A)
- Km ([5]; other: P56A/P58A CaFADS): 0.9 ± 0.4 µM

Compound: P56W CaFADS (Corynebacterium ammoniagenes; P56W)
- Km ([5]; other: P56W CaFADS): 0.4 ± 0.1 µM

Compound: P58W CaFADS (Corynebacterium ammoniagenes; P58W)
- Km ([5]; other: P58W CaFADS): 1.3 ± 0.7 µM
